Assay: gradient 5% acetonitrile 3 min, to 50% in 2 min, to 85% in 15 min, held 3 min, 100 µL/min
Conditions: column: Zorbax Extend-C18 2.1 x 50 mm; eluents: water / acetonitrile, 0.1% formic acid
Summary of the method: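 Retention times come from adduct peaks that were picked computationally and then checked by hand. The standards, pure and pooled in mixtures of ~100 molecules, were run on a Zorbax Extend-C18 column (2.1 × 50 mm, 1.8 μm) at 100 μL/min with water and acetonitrile, each with 0.1% formic acid. Detection was by quadrupole time-of-flight mass spectrometry in positive and negative ionization mode, with a dead volume of 40 μL and a dwell volume of 900 μL.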

| SMILES | RP-LC retention time |
| --- | --- |
| COc1ccc(CNC(=O)Cn2cnc3nc(N4CCC(C(=O)NC5CC5)CC4)sc3c2=O)cc1 | 666 s |
| CCOC(=O)c1sc(NC(=O)Cc2ccc3c(c2)OCO3)cc1C | 856 s |
| CNC(=O)C1CCCN(c2nc3ncn(CC(=O)Nc4ccccc4Cl)c(=O)c3s2)C1 (stereo not drawn) | 654 s |
| O=C(NCCCN1CCN(C2CCCCC2)CC1)c1ccc2c(c1)NC(=O)C1CCCCN21 (stereo not drawn) | 576 s |
| Cc1ccccc1NS(=O)(=O)c1cc2n(c1)CCN(C(C)C)C2=O | 758 s |
| CC(C)CN1C(=O)c2cccn2CC1C(=O)NC1CCCCCC1 (stereo not drawn) | 812 s |
| O=C(NCc1ccc(N2CCOCC2)cc1)c1cn2c(n1)CCCC2 | 586 s |
| COc1ccc(OCC(=O)N2CCN(c3cc(=O)n(C(C)C)c(=O)n3C(C)C)CC2)cc1 | 846 s |
| CC1=C(c2ccc(C)c(C)c2)S(=O)(=O)N=C1N1CCCN(C(=O)NC2CCCC2)CC1 | 876 s |
| CC(C)(C)n1nnnc1C1CC2(CCOCC2)C(=O)N1Cc1cccc(C(F)(F)F)c1 (stereo not drawn) | 862 s |
| CCn1ccc(C(=O)Nc2ccc3c(c2)Sc2ncccc2C(=O)N3C(C)C)n1 | 790 s |
| Cc1cc(C)n(-c2cc(N3CCCC(C(=O)Nc4cc(C)on4)C3)ncn2)n1 (stereo not drawn) | 762 s |
| O=C1CC(NC(=O)C2(c3ccccc3)CCOCC2)CN1C1CC1 (stereo not drawn) | 621 s |
| Cc1cc(OCC(=O)N[C@H](C(=O)O)c2ccccc2)c2c3c(c(=O)oc2c1)CCCC3 | 879 s |
| COc1ccccc1CCNS(=O)(=O)c1cc2c3c(c1)CCC(=O)N3CCC2 | 882 s |
| CCN1CCC2(CC1)N=C(c1ccc(F)cc1)CC(c1cc(Cl)ccc1O)N2 (stereo not drawn) | 635 s |
| O=C(Nc1cccc(C(F)(F)F)c1)N1CCCC1c1nncn1C1CCCC1 (stereo not drawn) | 765 s |
| O=c1n(Cc2cccc(F)c2)nc2ccc(S(=O)(=O)N3CCCC3)cn12 | 856 s |
| Cc1cc(C)cc(NC(=O)Cn2ncc3c(c2=O)N(C2CC2)C(=O)CS3)c1 | 797 s |
| Cc1nc2c(ccc3nc(NC(=O)NC4CCCC4)sc32)s1 | 785 s |
| O=C(NCCCN1CCOC(c2ccccc2)C1)c1ccc(Cl)cc1Cl (stereo not drawn) | 599 s |
| O=S(=O)(c1cccc(Cl)c1)N1CC(F)(F)C[C@H]1CN1CCc2ccccc2C1 | 788 s |

| SMILES | RP-LC retention time |
| --- | --- |
| COC(=O)c1onc(C(=O)c2ccccc2)c1C(=O)OC | 931 s |
| CN(C)CC1CCC2=C(C1=O)C(c1ccc(Cl)c(Cl)c1)C1=C(CCC(CN(C)C)C1=O)O2 (stereo not drawn) | 584 s |
| COCCN(CC(=O)N1CCc2sccc2C1COc1ccccc1C)C(=O)CC(C)C (stereo not drawn) | 973 s |
| COC(=O)c1ccc(NC(=O)C2CCCN2S(=O)(=O)c2ccc(F)cc2)cc1 (stereo not drawn) | 641 s |
| COc1ccc2c(c1)c(CN1CCC(N3C[C@H](OC)[C@@H]3c3cccnc3)CC1)cn2C | 579 s |
| CCN1CCN(c2c(C(=O)c3ccc(C)cc3)cnc3cc(OC)c(OC)cc23)CC1 | 559 s |
| CN1CCN(CCCNC(=O)CN2C(=O)C3CCCCN3c3ccc(C(=O)N(C)C)cc32)CC1 (stereo not drawn) | 572 s |
| O=S(=O)(c1ccc(-c2nnc(C3CCC3)o2)o1)N1CCCC1 | 846 s |
| O=C(C1=CN(c2ccc(F)cc2)c2cc(F)ccc2S1(=O)=O)N1CCOCC1 | 769 s |
| CCn1cc(S(=O)(=O)N2C[C@@H](COC)[C@H](C(=O)NC)C2)cn1 | 603 s |
| O=C(O)c1cncc(Br)c1 | 701 s |
| CCOC(=O)c1ccc(N2C=C(C#N)S(=O)(=O)c3ccc(Cl)cc32)cc1 | 1020 s |
| CC(C)NC(=O)c1nc2ccccc2n(C)c1=O | 659 s |
| COc1ccc(NC(=O)c2cn3c(n2)CSCC3)cc1OC | 631 s |
| Cn1cnnc1C1CCCCN1S(=O)(=O)c1cccs1 (stereo not drawn) | 639 s |
| COC[C@@H]1CN(S(=O)(=O)c2ccc(C#N)cc2)C[C@H]1c1ccccn1 | 746 s |
| CN1C(=O)CCc2cc(NC(=O)c3ccsc3)ccc21 | 691 s |
| COc1ccc(OC)c(NC(=O)C2CCCN2S(=O)(=O)c2ccc3c(c2)NC(=O)CO3)c1 (stereo not drawn) | 803 s |
| Cc1cc(Cl)ccc1S(=O)(=O)N1CCC2(CC1)c1nccn1CCN2C | 697 s |
| CCn1cc(C(=O)NCc2ccccc2F)c(S(=O)(=O)N2CCSCC2)n1 | 901 s |
| O=C(NC1CCCC1)C1CCN(C(=O)c2ccc(-c3noc(C4CC4)n3)cc2)CC1 | 813 s |
| COC1C(=O)N(CC2CC2)C12CCN(C(=O)C1CCOCC1)CC2 (stereo not drawn) | 638 s |

Second part, the molecule after the results:

| RP-LC retention time | SMILES |
| --- | --- |
| 1090 s | CCn1c(=O)c2ccccc2n(Cc2nc(-c3cccc(Cl)c3)no2)c1=O |
| 756 s | COc1ccc(NC(=O)Cn2nc(C(=O)N3CCCCC3)c3ccccc32)cc1OC |
| 1170 s | COc1cccc(-c2nc(C3CCN(S(=O)(=O)c4ccc(C)c(F)c4)CC3)no2)c1 |
| 812 s | COc1ccc(CNC(=O)N2CCN(Cc3nc4cc(-c5ccccc5)ccc4o3)CC2)cc1 |
| 846 s | Cc1ccc2c(c1)NC(=O)c1cc(NC(=O)c3ccccc3Br)ccc1O2 |
| 916 s | Cc1cc(C)cc(NC(=O)Cn2c(=O)c(CCC(=O)NC3CCCC3)nc3ccccc32)c1 |
| 908 s | CCOc1nc2ccccc2nc1N1CCCC(C(=O)Nc2ccc(NC(C)=O)cc2)C1 (stereo not drawn) |
| 838 s | Cc1ccc(N2CC(c3nc(-c4ccccn4)no3)CC2=O)cc1Cl (stereo not drawn) |
| 1050 s | Cc1nc(-c2cn(C(C)C)c3ncccc23)sc1C(=O)N(C)Cc1ccccc1 |
| 894 s | O=C(NCc1cccc(F)c1)c1ccc(-c2cccs2)nc1 |
| 1140 s | COc1ccccc1-c1nc(Cn2nnc(-c3nc(-c4ccccc4)no3)c2C)c(C)o1 |
| 803 s | COc1ccc(-c2noc(C3CC(=O)N(c4ccccc4)C3)n2)c(OC)c1 (stereo not drawn) |
| 1140 s | CC1CCN(c2nnc(-c3nc(C4CC4)no3)c3ccccc23)CC1 |
| 956 s | Cc1cccc(-n2c(N3CCCC(C(=O)NCc4ccccc4Cl)C3)nc3ccsc3c2=O)c1 (stereo not drawn) |
| 837 s | Cc1ccc(N2CC(c3nc(-c4ccc5c(c4)nc(C)c(=O)n5C)no3)CC2=O)cc1 (stereo not drawn) |
| 871 s | CCc1ccc(S(=O)(=O)N2CCC(n3c(-c4ccoc4)nc4cccnc43)C2)cc1 (stereo not drawn) |
| 748 s | Cc1cccc(NC(=O)N2CCCC2c2cc(C)on2)c1 (stereo not drawn) |
| 776 s | COCCNC(=O)Cc1c(C)n(Cc2ccccc2)c2nc(-c3ccccc3)nn2c1=O |
| 1020 s | CCc1ccc(-c2nc(C3CC(=O)N(c4ccc(Cl)cc4)C3)no2)cc1 (stereo not drawn) |
| 899 s | COc1ccc(C2(CNC(=O)C(=O)NCC3COc4ccccc4O3)CCOCC2)cc1 (stereo not drawn) |
| 614 s | Cn1cnc2cc(-c3noc(CNC(=O)c4ccccc4)n3)ccc21 |
| 856 s | O=C(C1CCCO1)N1CCN(c2nc3cccnc3n(Cc3ccccc3)c2=O)CC1 (stereo not drawn) |

| RP-LC retention time | SMILES |
| --- | --- |
| 670 s | Cc1cccc(-c2nnc(-c3nc(NCc4ccc(C)o4)c4ccccc4n3)o2)c1 |
| 697 s | Cc1ccc(C)c(NC(=O)Nc2c(-c3ccc(F)cc3)nc3ccccn23)c1 |
| 655 s | CC1(C(=O)Nc2ccccc2)Oc2cccnc2NC1=O (stereo not drawn) |
| 1010 s | O=C(Nc1ccc(N2CCN(c3ccccc3)C2=O)nc1)c1ccc(Cl)cc1 |
| 670 s | COC(=O)c1ccc2c(=O)n(-c3ccc(Cl)cc3)c(N3CCN(C)CC3)nc2c1 |
| 795 s | COc1cccc(N2CCN(C(=O)Cn3ccc4c(SCc5ccc(F)cc5)nccc43)CC2)c1 |
| 854 s | O=C(NCc1ccco1)N1CCCn2nc(-c3cccc(Cl)c3)cc2C1 |
| 712 s | CN(C(=O)CSc1nnc(-c2cn(C)nc2-c2ccccc2)n1C)c1ccccc1 |
| 710 s | COc1ccc(-c2c(C)noc2NC(C)=O)cc1S(=O)(=O)Nc1ccc(C#N)cc1 |
| 727 s | Cc1ccc(NC(=O)C2(C)Oc3cccnc3NC2=O)c(C)c1 (stereo not drawn) |
| 1090 s | CCCn1c(=O)c(C)nc2cc(-c3noc(-c4cc(OC)cc(OC)c4)n3)ccc21 |
| 867 s | CN(C)c1cccc(C(=O)N2CCC3(CC2)N=C(c2ccc(Br)cc2)NO3)c1 |
| 1060 s | Cc1ccc(N2C(=O)N(Cc3ccccc3)S(=O)(=O)c3cccnc32)cc1 |
| 592 s | Cc1cc(NCC(O)c2ccc([N+](=O)[O-])cc2)nc(-n2nc(C)cc2C)n1 (stereo not drawn) |
| 1130 s | COc1ccc(Cl)cc1NC(=O)CSc1nnc2c3cc(-c4ccc(C)c(C)c4)nn3ccn12 |
| 872 s | O=S(=O)(c1cccc(F)c1)N1CCC(n2c(-c3ccoc3)nc3cccnc32)C1 (stereo not drawn) |
| 899 s | O=S(=O)(CCc1noc(-c2ccc3c(c2)OCO3)n1)c1ccccc1 |
| 901 s | CCN1C(=O)CCc2c(C)nc(-c3ccc(OC)cc3)nc21 |
| 869 s | CCCn1cc(S(=O)(=O)Nc2ccccc2F)c2cccnc21 |
| 814 s | CCCN(CCC)c1nc(-c2ccccc2F)nc2ccccc12 |
| 874 s | CC(=O)Nc1ccc(Cc2nc(-c3cccc(-c4ccnn4C)c3)no2)cc1 |
| 1040 s | CCCCn1cc(S(=O)(=O)Nc2ccc(CC)cc2)c2cccnc21 |

Reference: the METLIN SMRT retention time set (Domingo-Almenara et al. 2019)
